Measured values as given in US20250304892A1, “APPARATUS, SYSTEM, AND METHOD FOR FORMING A PERTURBABLE BONE MARROW MODEL WITHIN A THREE-DIMENSIONAL MICROPHYSIOLOGICAL SYSTEM” (The Trustees of the University of Pennsylvania, priority 2022, published 2025).

How the values were obtained:
Type in all cases: cell-based, human
[1] = test system: micro-engineered bone marrow (MEBM) model; experiment: Mobilization of blood cells from the MEBM model on vascular perfusion with IL-8 or AMD3100
Source text: When hormones, cytokines, and other soluble signals produced by peripheral tissues reach the bone marrow, they can induce mature blood cells in the hematopoietic niche to transmigrate across the sinusoidal endothelium and enter the bloodstream. This regulated release of blood cells into circulation is termed mobilization, which represents a critical step in immunity and continuous cellular replenishment required for homeostasis of the hematopoietic system. Having validated the transcriptomic signatures of mature hematopoietic cells in the MEBM model and their capacity for physiologically relevant cell-cell signaling, the MEBM model was evaluated to determine whether it could reconstitute the complex process of mobilization in the integrated context of the vascularized hematopoietic niche. The study was specifically focused on investigating the ability of mature neutrophils differentiated from HSCs in the MEBM model to replicate rapid release of their in vivo counterparts from the bone marrow reserve during immune responses to inflammatory insults. To simulate this situation, the vasculature of the micro-engineered niche was perfused with culture media containing physiologically relevant concentrations of interleukin-8 (IL-8) during infection (5,000 μg/ml), a systemic inflammatory cytokine known to stimulate neutrophil release.
In control experiments without IL-8, the vast majority of mature neutrophils identified by their expression of CD66b were retained in the perivascular space. […] Intravascular translocation of these cells occurred rapidly, within one hour of treatment, consistent with the time scale over which neutrophils are mobilized from the native marrow in an inflammatory setting.
To capture the process of mobilization under the dynamic conditions of continuous vascular perfusion, a time-lapse imaging of neutrophils in the micro-engineered niche was performed at physiological flow rates (10 μl/min). In the IL-8-treated replicates, neutrophils were distributed in the perivascular region initially, but upon cytokine stimulation, a large fraction of these cells entered the neighboring blood vessels in less than 20 minutes. The intravasated cells were then quickly cleared from the observation area in the direction of flow. The cellular content of effluent collected from these devices was composed primarily of non-adherent cells characterized by multilobular nuclei and robust expression of CD66b, confirming the release of terminally differentiated mature neutrophils. During the same time period only a few neutrophils were mobilized in the control group.
The MEBM model was also responsive to AMD3100 (Plerixafor), a CXCR4 antagonist clinically used for mobilizing HSCs and other hematopoietic cells from the bone marrow for autologous transplantation.
Statistically analyses described above were performed as follows. Mobilization of neutrophils in response to IL-8 and AMD3100 was assessed by ordinary one-way ANOVA, with Dunnett correction employed for multiple comparisons. Marker expression (CD15 and CD66b) as compared between AMD3100- and IL-8-mobilized groups was tested by unpaired t-test. Cell populations following irradiation were compared using 2-way ANOVA with multiple comparisons testing adjusted by Dunnett correction. Mobilization following infection was compared between infected and non-infected groups by unpaired t-test. Quantities of neutrophils at inflow and outflow position were compared using Welch's t-test to account for unequal variances in the data. Comparisons between multiplexed Luminex cytokine assays were performed using multiple t-tests, corrected by the Holm-Sidak method.

[2] = test system: micro-engineered bone marrow (MEBM) model; experiment: Stimulation of erythropoiesis in the MEBM model with erythropoietin; conditions: Erythropoiesis-Specific Medium (EPO 1 ng/ml)
Protocol: Having confirmed the vascularization and HSC colonization of the micro-engineered niche, the potential to deploy the MEBM model to reconstitute multilineage hematopoiesis was investigated. Considering that hematopoiesis in vivo relies on extrinsic cues to control the fate of HSCs, the hematopoietic investigation was conducted by the addition of soluble factors known to drive lineage differentiation. First, the MEBM model was treated with erythropoietin (EPO) (see “Erythropoiesis-Specific Medium” of Table 1) to stimulate erythropoiesis. […] Following this phenotypic organization, the MEBM model produced a substantial number of round, erythroid cells that were distinguishable by their red color and expression of transferrin receptor (i.e., CD71) and glycophorin A. The micro-engineered niche also supported the differentiation of HSCs into myeloid cells. Stimulation of the MEBM model with myelopoietic media (see Table 1) for 21 days produced a marrow construct densely packed with cells of myeloid lineages, most of which were situated proximate the vasculature. A significant number of the cells were terminally differentiated mature neutrophils as identified by their multisegmented nuclei, intracellular secretory granules, and surface marker expression (CD15+/CD66b+).

mobilized neutrophils = experiment: Boyden chamber migration assay: chemotaxis of mobilized neutrophils in a gradient of IL-8; conditions: over a period of an hour
Protocol: For further investigation, a Boyden chamber migration assay was conducted to measure chemotaxis of mobilized neutrophils in a gradient of IL-8 as a representative endpoint of their functional capacity. […] It was noted that the transmigrated cells in the lower chamber clumped together to form multicellular aggregates, reminiscent of neutrophil swarming in vivo that plays an important functional role in antimicrobial activities of neutrophils.

[3] = image cytometry of CD15 and CD66b staining, cells released by AMD3100

For `c1cc(CN2CCCNCCNCCCNCC2)ccc1CN1CCCNCCNCCCNCC1` [AMD3100, Plerixafor, reference compound], the “rate of mobilization compared with the IL-8-treated model” value ([1]; AMD3100 25 μg/ml) was “lower than that in the IL-8-treated model”, the “neutrophils among the released cells of myeloid lineage” value [1, 3] was 56% and the “released cells of myeloid lineage” value [1, 3] was “approximately 65%”. For the same compound, the “increase in the rate at which cells were released from the device” value ([1]; perfused with clinical dose 25 μg/ml, in comparison to untreated controls) was “more than fivefold”.
For “EPO: soluble factor added to stimulate erythropoiesis”, the “effect of EPO addition on the micro-engineered niche” value [2] was “formation of multicellular complexes”.
With “IL-8: a systemic inflammatory cytokine known to stimulate neutrophil release” the “mature neutrophils in the population of released cells” value ([1]; IL-8-induced mobilization, image cytometry) was 76%, the “egress of CD66b+ cells from the stromal compartment into the vascular lumen” value ([1]; IL-8 infused through the vasculature (5,000 μg/ml), compared with control without IL-8) was “substantial egress of CD66b+ cells” and the “time until a large fraction of neutrophils entered the neighboring blood vessels” value ([1]; time-lapse imaging, continuous vascular perfusion at 10 μl/min, upon cytokine stimulation) was “less than 20 minutes”. For the same compound, the “cells that moved across the membrane” value (mobilized neutrophils) was about 80%.
